Experimental findings from PubChem BioAssay (NCI) are described below.

Assay in all cases: NCI anticancer screen, dose series, 48 h
Assay [1] relates to RXF 393 renal.
In assay [2] the test system is UACC-257 melanoma.
For assay [3], the system named is OVCAR-5 ovarian.
Assay [4] relates to HL-60(TB) leukemia.
The subject of assay [5] is HCC-2998 colon.
Assay [6] relates to UACC-62 melanoma.
Assay [7] concerns RPMI-8226 leukemia.
The subject of assay [8] is SF-295 CNS.
For assay [9], the system named is IGROV1 ovarian.
Assay [10] relates to MDA-MB-435.

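Compound exposure: 48 hours, 5 concentrations, 96-well plates. The concentration for 50% growth inhibition is given as GI50. TGI denotes the concentration required for complete inhibition of growth.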

In the case of `CCOC(=O)C(CC/C=C\c1ccccc1)N1CCC[C@H]1C(=O)OC` (stereo partly specified), the TGI in assay [1], in [2], in assay [3], in [4], in assay [5] and in assay [6] was over 100 µM throughout. The TGI in assay [7], in [8] and in assay [9] was over 100 µM in each case.
On to `Cc1cn2c(/C=N/N=C(N)N)c(-c3ccccn3)nc2s1`, for which the GI50 was 5.9 µM in assay [1]; 7.78 µM in [2]; 22.3 µM in assay [3]; 4.56 µM in assay [4]; 15.9 µM in assay [6]; 7.53 µM in [7]. In addition, the GI50 was 17.1 µM in assay [8], 16 µM in [9] and 19 µM in assay [10]. Further, the TGI in assay [1] is 18.1 µM; in [2], 17.9 µM; in assay [3], 46 µM; in [4] it was over 100 µM; in assay [6] it was 31.6 µM; in assay [7], over 84.7 µM. For the same compound, the TGI in assay [8] was 37.1 µM; in [9], over 100 µM; in assay [10] it was 41.6 µM.
Turning to `CCOC(=O)c1cnc2sc3ccc4ccccc4c3n2c1=O`, the TGI in [1] was over 100 µM; in assay [2], over 100 µM; in assay [3], over 100 µM; in [4] it was 52 µM; in [5], over 100 µM; in assay [6], over 100 µM. Besides, the TGI in assay [7], in assay [8] and in assay [9] was over 100 µM throughout.
In the case of `CC1(C)NCCC[C@]2(C)[C@H]3CC[C@@H]4[C@H]5[C@H](C(=O)/C=C/c6ccccn6)CC[C@]5(CO)CC[C@@]4(C)[C@]3(C)CC[C@@H]12`, the GI50 is 2.51 µM in assay [1]; 3.99 µM in assay [2]; 3.69 µM in assay [3]; 1.84 µM in assay [4]; 4 µM in assay [6]; 2.16 µM in assay [7]. Further, the GI50 in [8] is 1.82 µM; in assay [10], 2.11 µM. Also, the TGI worked out at 8.08 µM in [1]; 19 µM in assay [2]; 16.9 µM in assay [3]; 4.7 µM in assay [4]; 17.2 µM in assay [6]; 5.58 µM in assay [7]. Besides, the values for the TGI in assay [8] and in assay [10] were 3.47 µM and 4.9 µM, respectively.
As for `O=C1c2ccccc2-c2c1c1c(O)cccc1n2Cc1ccccn1`, the GI50 in assay [1] is 45.7 µM; in assay [2] it was 23.1 µM; in assay [3], 58.5 µM; in assay [5], 70.9 µM; in assay [6], 20.5 µM; in assay [7] it was 19.9 µM. Also, the results for the GI50 in assay [8], in assay [9] and in assay [10] were 23.6 µM, 88.6 µM and 27.4 µM, respectively. Further, the TGI was over 100 µM in [1]; 60.4 µM in [2]; over 100 µM in assay [3]; over 100 µM in assay [5]; over 100 µM in assay [6]; over 100 µM in assay [7]. The TGI in [8], in assay [9] and in assay [10] was over 100 µM in each case.
Take `CN(C)CCNc1c2ccccc2nc2oc3ccccc3c12`: the GI50 in assay [2] was 7.88 µM; in assay [3], 20.6 µM; in [4], 3.53 µM; in assay [5], 8.49 µM; in [6], 10.1 µM; in assay [8], 5.99 µM. Also, the GI50 in assay [9] is 4.82 µM; in assay [10], 6.9 µM. For the same compound, the TGI worked out at 27 µM in [2]; 49.7 µM in [3]; 25.2 µM in assay [4]; 22.3 µM in assay [5]; 23.5 µM in assay [6]; 24.6 µM in assay [8]. For the same compound, the TGI is 26 µM in [9] and 23 µM in assay [10].
As for `O=C1C2CCN(CC2)C1(CO)CO`, the TGI is 52 µM in [1]; 37.7 µM in [2]; 45.9 µM in assay [3]; over 78.6 µM in assay [4]; 42.1 µM in assay [6]; 43.4 µM in assay [7]. Moreover, the TGI in assay [8], in assay [9] and in assay [10] was over 100 µM throughout.
For `Cc1cccc(C(C)(C)C)c1NC(=O)CCc1nc(=S)[nH][nH]1`, the TGI in assay [1], in assay [2], in assay [3], in assay [4], in assay [5] and in assay [6] was over 100 µM each time. The TGI in [7], in assay [8] and in [9] was over 100 µM each time.
As to `NS(=O)(=O)CC1CC[CH-]CC1.[Cl-].[Cl-].[Cl-].[Cl-].[Cl-].[Sb+5].c1ccncc1`, the GI50 in assay [1], in assay [2], in assay [3], in assay [5], in assay [6] and in assay [7] was over 100 µM throughout. The GI50 in assay [8], in [9] and in assay [10] was over 100 µM in each case. The TGI in assay [1], in assay [2], in assay [3], in assay [5], in assay [6] and in [7] was over 100 µM throughout. Further, the TGI in assay [8], in [9] and in assay [10] was over 100 µM in each case.
With `COc1ccc2oc(C(=O)O)c3c2c1CCC3CCC(=O)O` (stereo unspecified), the TGI in assay [1], in [2], in [3], in assay [4], in [5] and in [6] was over 100 µM each time. Also, the TGI in [7], in [8] and in [9] was over 100 µM throughout.
